# Measured values as given in PubChem BioAssay (NCI).
# Where “and” joins values, the source holds several entries; their conditions need not be identical. Equal values may be shown once.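 These data come from cells grown in 96-well plates and exposed to compound for 48 hours at five concentrations. GI50 marks 50% less growth. TGI: concentration producing complete growth inhibition.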
# How the values were obtained:
# Experiment in all cases: growth of human tumour cells (NCI), 48 h
# [1] = tested on: SK-MEL-2 melanoma
# [2] = tested on: SW-620 colon
# [3] = tested on: NCI/ADR-RES ovarian
# [4] = tested on: UACC-257 melanoma
# [5] = tested on: HCT-15 colon
# [6] = tested on: NCI-H226 lung
# [7] = tested on: CCRF-CEM leukemia
# [8] = tested on: PC-3 prostate
# [9] = tested on: RXF 393 renal
# [10] = tested on: TK-10 renal
# [11] = tested on: SK-MEL-5 melanoma
# [12] = tested on: COLO 205 colon
# [13] = tested on: UACC-62 melanoma
# [14] = tested on: MCF7 breast
# [15] = tested on: DU-145 prostate
SMILES,TGI [1],TGI [2],TGI [3],TGI [4],TGI [5],TGI [6],TGI [7],TGI [8],TGI [9],TGI [10],TGI [11],TGI [12],TGI [13],TGI [14],TGI [15],GI50 [2],GI50 [4],GI50 [6],GI50 [11],GI50 [12]
O/N=C1\CCc2cc3c(cc21)CCC3,> 100 µM,> 100 µM,> 100 µM,> 100 µM,> 100 µM,> 100 µM,> 100 µM,> 100 µM,> 100 µM,> 100 µM,> 100 µM,> 100 µM,> 100 µM,> 100 µM,> 100 µM,–,–,–,–,–
CCSC(=O)/C=C1\CN(C(=O)OC(C)(C)C)C1C(=O)OC(C)(C)C (configuration not stated),18.4 µM,4.1 µM,> 23.7 µM,8.91 µM,3.93 µM,27.5 µM,3.97 µM,18.1 µM,3.76 µM,6.39 µM,12.6 µM,5.48 µM,10.6 µM,16.8 µM,16.3 µM,–,–,–,–,–
O=Cc1ccc(-c2cccc([N+](=O)[O-])c2)s1,> 100 µM,> 100 µM,> 100 µM,> 100 µM,> 100 µM,> 100 µM,> 100 µM,> 100 µM,> 100 µM,> 100 µM,> 100 µM,> 100 µM,> 100 µM,> 100 µM,> 100 µM,–,–,–,–,–
CC(=O)N1N=C(c2c(O)ccc3ccccc23)CC1c1ccc(Cl)cc1 (configuration not stated),38.2 µM,> 100 µM,43.9 µM,> 100 µM,> 100 µM,> 100 µM,25.7 µM,68.9 µM,42.9 µM,> 100 µM,47 µM,39.2 µM,27.6 µM,35.1 µM,> 100 µM,–,–,–,–,–
CN1CCN(CCCCN2c3ccccc3Sc3ccc(N=[N+]=[N-])cc32)CC1,12.9 µM,6.85 µM,30 µM,4.22 µM,23 µM,31.7 µM,7.75 µM,15.9 µM,19.1 µM,27.9 µM,4.62 µM,3.51 µM,4.1 µM,9.75 µM,26.6 µM,–,–,–,–,–
CCN1C[C@]2(C)CC[C@H](OCc3ccccc3)C34C5C[C@@H]6CC[C@](O)(C(C[C@@H]32)C14)C5[C@H]6OCc1ccccc1 (some centres not stated),> 100 µM,> 100 µM,> 100 µM,> 100 µM,> 100 µM,> 100 µM,> 100 µM,> 100 µM,> 100 µM,> 100 µM,> 100 µM,> 100 µM,> 100 µM,> 100 µM,> 100 µM,–,–,–,–,–
CCN(CC)CCC(=O)c1ccc(Oc2ccccc2)cc1,> 100 µM,31.3 µM,56.4 µM,33.5 µM,35.6 µM,> 100 µM,51.3 µM,> 100 µM,36.4 µM,27.5 µM,–,32.1 µM,29.3 µM,38.5 µM,71.2 µM,–,–,–,–,–
COC(=O)c1c(O)ccc2c1c1c(n2-c2ccc(OC)cc2)C(=O)c2ccccc2C1=O,> 100 µM,> 100 µM,48 µM,> 100 µM,> 100 µM,73.3 µM,> 100 µM,74.1 µM,25.7 µM,39.5 µM,> 100 µM,3.52 µM,–,72.4 µM,48.3 µM,–,–,–,–,–
CC(=O)OCC1OC(n2c(C)c(C(C)=O)c(-c3cccc4ccccc34)c(C#N)c2=S)C(OC(C)=O)C(OC(C)=O)C1OC(C)=O (configuration not stated),> 100 µM,> 100 µM,> 100 µM,> 100 µM,> 100 µM,> 100 µM,> 100 µM,> 100 µM,> 100 µM,> 100 µM,> 100 µM,> 100 µM,> 100 µM,> 100 µM,> 100 µM,–,–,–,–,–
N#C/C(=C\c1ccc(Br)cc1)c1nc(-c2cc3ccccc3oc2=O)cs1,> 50 µM,> 50 µM,34.4 µM,33.2 µM,> 50 µM,> 50 µM,> 50 µM,> 50 µM,> 50 µM,22.9 µM,> 50 µM,> 50 µM,23.7 µM,> 50 µM,> 50 µM,–,–,–,–,–
CC1CC(C)(O)CC(C(O)CC2CC(=O)NC(=O)C2)C1=O (configuration not stated),2.68 µM,1.53 µM,5.87 µM,> 100 µM,2.94 µM,0.764 µM,1.53 µM,5.63 µM,1.05 µM,3.99 µM,0.195 µM,1.01 µM,0.62 µM,0.686 µM,1.85 µM,–,–,–,–,–
CN(C)CCNC(=O)c1cc(-c2nccn2C)nc2ccccc12,> 100 µM,> 100 µM,> 100 µM,> 100 µM,> 100 µM,> 100 µM,> 100 µM,> 100 µM,> 100 µM,> 100 µM,> 100 µM,> 100 µM,> 100 µM,> 100 µM,> 100 µM,–,–,–,–,–
Cc1cc(-c2nc3cc(O)ccc3s2)ccc1N,74.4 µM,> 100 µM,> 100 µM,> 100 µM,> 100 µM,> 100 µM,96.8 µM,> 100 µM,> 100 µM,> 100 µM,48 µM,49.8 µM,44.2 µM,> 100 µM,> 100 µM,–,–,–,–,–
COc1cc(-c2oc(C=Nc3ccccc3)c([N+](=O)[O-])c2-c2ccc(O)c(OC)c2)ccc1O,> 100 µM,> 85.3 µM,> 68.1 µM,> 73.6 µM,42.3 µM,> 100 µM,> 100 µM,> 64.5 µM,51.1 µM,39.5 µM,> 79.5 µM,> 63.2 µM,47.2 µM,> 100 µM,53.3 µM,–,–,–,–,–
CN(C)c1ccc(N=Nc2cccc3ncccc23)cc1,> 100 µM,> 100 µM,> 100 µM,> 100 µM,> 100 µM,> 100 µM,> 100 µM,> 100 µM,> 100 µM,> 100 µM,61.2 µM,> 100 µM,> 100 µM,> 100 µM,> 100 µM,–,–,–,–,–
CCOC(=O)C(=CNC(=S)Nc1c(CC)cccc1CC)C(=O)OCC,> 100 µM,> 100 µM,> 100 µM,> 100 µM,–,> 100 µM,> 100 µM,> 100 µM,> 100 µM,> 100 µM,> 100 µM,> 100 µM,> 100 µM,> 100 µM,> 100 µM,–,–,–,–,–
O=C(NCC(C(=O)OCc1ccccc1)C(=O)OCc1ccccc1)OCc1ccccc1,> 100 µM,> 100 µM,> 100 µM,> 100 µM,> 100 µM,> 100 µM,–,> 100 µM,> 100 µM,> 100 µM,> 100 µM,> 100 µM,> 100 µM,> 100 µM,> 100 µM,–,–,–,–,–
CC(C)c1ccc2[nH]c(O)c(C3=Nc4ccccc4C3=O)c2c1,53.8 µM,> 100 µM,> 100 µM,> 100 µM,> 100 µM,18.7 µM,> 100 µM,54.8 µM,6.71 µM,54.2 µM,> 100 µM,> 100 µM,69.8 µM,1.3 µM,94.5 µM,–,–,–,–,–
[C-]#[N+]C1(C(=O)OCC)CC1,–,> 100 µM,> 100 µM,> 100 µM,> 100 µM,> 100 µM,> 100 µM,> 100 µM,> 100 µM,> 100 µM,> 100 µM,–,> 100 µM,> 100 µM,> 100 µM,–,–,–,–,–
COC(=O)/C(=C\c1cn(C(C)=O)c2ccccc12)P(=O)(OC)OC,–,40.7 µM,> 100 µM,–,28.1 µM,> 100 µM,> 100 µM,39.8 µM,32.8 µM,36 µM,26.5 µM,33.3 µM,31.1 µM,26.4 µM,26.2 µM,–,–,–,–,–
Cc1c(F)c(N)c2c(=O)cc(-c3ccc(NC(=O)[C@@H](N)CCCCN)c(F)c3)oc2c1F,34.6 µM and 47.1 µM,39 µM and 17.3 µM,51.9 µM and 78.7 µM,24.7 µM and 27.8 µM,30.4 µM and 30.3 µM,15 µM,22.9 µM,32 µM and 29.3 µM,36.1 µM and 53.3 µM,21.4 µM and 26.4 µM,27.4 µM and 27.2 µM,31.5 µM and 24.4 µM,–,1.81 µM and 1.38 µM,41.3 µM and 27.4 µM,7.81 µM and 1.71 µM,0.302 µM,0.0446 µM,13.2 µM and 2.63 µM,14.9 µM and 6.93 µM
CC(C)CCCC(C)[C@H]1CC[C@H]2[C@@H]3CC[C@H]4C[C@@H](CCC=C(c5cc(Cl)c(O)c(C(=O)O)c5)c5cc(Cl)c(O)c(C(=O)O)c5)CC[C@]4(C)[C@H]3CC[C@]12C (some centres not stated) (tested in a mixture with another compound),> 50 µM,> 50 µM,> 50 µM,–,> 50 µM,> 50 µM,> 50 µM,> 50 µM,> 50 µM,> 50 µM,> 50 µM,> 50 µM,> 50 µM,> 50 µM,> 50 µM,–,–,–,–,–
CC(C)c1nc2c(Cl)c3ncccc3cc2[nH]c1=O,> 100 µM,> 100 µM,> 100 µM,> 100 µM,> 100 µM,> 100 µM,> 100 µM,> 100 µM,> 100 µM,–,> 100 µM,> 100 µM,> 100 µM,> 100 µM,> 100 µM,–,–,–,–,–
COc1ccc2c(c1)CCCN1Cc3ccccc3CC21 (configuration not stated),–,> 100 µM,> 100 µM,> 100 µM,> 100 µM,> 100 µM,> 100 µM,> 100 µM,> 100 µM,> 100 µM,56.7 µM,> 100 µM,> 100 µM,> 100 µM,> 100 µM,–,–,–,–,–
O=C1C(=C(C(=O)c2ccccc2)C(=O)c2ccccc2)OC(c2ccccc2)=C1C(=O)c1ccccc1,28.3 µM,–,24.5 µM,55.1 µM,14.9 µM,16.4 µM,10.9 µM,> 100 µM,8.13 µM,61.4 µM,25 µM,25.7 µM,22.8 µM,29.7 µM,48.8 µM,–,–,–,–,–
O=C1NC(=NC2CCCCC2)C2(CCN(CCCC3(c4ccc(F)cc4)OCCO3)CC2)N1c1ccccc1,30.2 µM,50.2 µM,66.8 µM,28.7 µM,36.9 µM,44.3 µM,> 100 µM,38.4 µM,31.1 µM,32.7 µM,28.2 µM,38.4 µM,–,48.3 µM,33.8 µM,–,–,–,–,–
O=CC1C[C@@H](N2C(=O)O[C@@H](c3ccccc3)[C@H]2c2ccccc2)[C@@H]1COCc1ccccc1 (some centres not stated),30.8 µM,77.1 µM,83.6 µM,41.7 µM,36.3 µM,42.2 µM,–,43.1 µM,46.3 µM,44.5 µM,29.1 µM,42 µM,39.9 µM,55.1 µM,35.7 µM,–,–,–,–,–
O=C(/C=C(\O)c1ccc(Cl)cc1)C(=O)NN=C(c1ccccc1)c1ccccc1,> 100 µM,–,50.3 µM,> 100 µM,> 100 µM,> 100 µM,98.5 µM,> 100 µM,> 100 µM,> 100 µM,> 100 µM,74.4 µM,> 100 µM,> 100 µM,> 100 µM,–,–,–,–,–
CN(C)/C=C/c1nnnn1-c1ccc(I)cc1,–,50.6 µM,63.5 µM,67.5 µM,54.4 µM,56.9 µM,25.9 µM,46.2 µM,59.6 µM,87.1 µM,33 µM,> 100 µM,31.1 µM,65 µM,74.5 µM,–,–,–,–,–
CC(=O)OC[C@@H](OC(C)=O)[C@@H](OC(C)=O)[C@H]1OC[C@@H]2C[C@H]([C@H]1OC(C)=O)N(Cc1ccccc1)O2,> 100 µM,> 100 µM,> 100 µM,> 100 µM,–,> 100 µM,> 100 µM,> 100 µM,> 100 µM,> 100 µM,> 100 µM,> 100 µM,> 100 µM,> 100 µM,> 100 µM,–,–,–,–,–
